Laboratory results published in patent publication US9630894B2, “Energy efficient method and apparatus for the extraction of biomolecules from dilute aqueous solution” (DYNASEP INC., priority 2012, dated 2017).

Test: CCC extraction with DME of clarified fermentation broth from Clostridium acetobutylicum, GC and DNS assay
Format: physicochemical
Protocol: This example describes three different runs of the CCC with fermentation broth from Clostridium acetobutylicum. […] The fermentation was intentionally interrupted prior to completion.
The extraction column operated at room temperature (˜25° C.) throughout the column. Periodic extract and raffinate samples were taken and analyzed for the constituents in the extract and raffinate discharges.
This example describes three different runs. In all cases, the mass of solvent to the mass of feed ratio (S/F) was 0.9. In all example the fermentation broth was first centrifuged to removal all cellular matter. Thus, the feed solution was clarified. In the case of the first run, the following components were measured via gas chromatograph (GC) analysis using external standard calibration. The external standard was run prior to analyzing the samples to provide individual calibration between peak area and the respective constituent under measure. […] Acetate was the conjugate base of acetic acid. Butyrate was the conjugate base of butyric acid. All components were quantified in the extract and raffinate. Since the extract and raffinate are mostly water and DME dissolves in water to approximately 20 wt. %, the samples were allowed to degas over a 24 hour period.
During the run, samples were taken of the extract and raffinate. In the case of the extract, the bulk DME was removed by reduction of pressure and addition of heat to flash the DME from the water and other solution constituents.
Extract and raffinate samples were collected at periodic intervals during the CCC testing. […] Glucose was measured via a DNS (3,5-dinitrosalicylic acid) assay.
In cases where the extract formed a two phase solution, the extract samples were diluted with distilled water to create a single phase and homogenous sample prior to GC. The dilution factor was then used to correct the GC measurements for concentrations prior to dilution.

[1] = Run 3, Extract Bot, time 31 min
[2] = Run 3, Extract Bot, time 37 min
[3] = Run 3, Extract Top, time 31 min
[4] = Run 3, Extract Top, time 37 min

CC(=O)O [acetate]
extraction into DME (Run 1, pH greater than 5.5): not extracted | concentration in sample [1]: 480 µg/mL | concentration in sample [2]: 0 µg/mL | concentration in sample [3]: 400 µg/mL | concentration in sample [4]: 370 µg/mL | concentration in sample (Run 3, Extract, time 22 min): 410 µg/mL | concentration in sample (Run 3, Extract, time 27 min): 0 µg/mL | concentration in sample (Run 3, Extract, time 43 min): 480 µg/mL | concentration in sample (Run 3, Extract, time 70 min): 400 µg/mL | concentration in sample (Run 3, Extract, time 74 min): 0 µg/mL | concentration in sample (Run 3, Extract, time 78 min): 550 µg/mL | concentration in sample (Run 3, Extract, time 82 min): 400 µg/mL | concentration in sample (Run 3, Feed, time 0 min): 5470 µg/mL | concentration in sample (Run 3, Raffinate, time 22 min): 6780 µg/mL | concentration in sample (Run 3, Raffinate, time 27 min): 5370 µg/mL | concentration in sample (Run 3, Raffinate, time 31 min): 6420 µg/mL | concentration in sample (Run 3, Raffinate, time 37 min): 6010 µg/mL | concentration in sample (Run 3, Raffinate, time 43 min): 7110 µg/mL | concentration in sample (Run 3, Raffinate, time 70 min): 6840 µg/mL | concentration in sample (Run 3, Raffinate, time 74 min): 7770 µg/mL | concentration in sample (Run 3, Raffinate, time 78 min): 7070 µg/mL | concentration in sample (Run 3, Raffinate, time 82 min): 7290 µg/mL

CCCC(=O)O [butyrate]
extraction into DME (Run 1, pH greater than 5.5): About half | concentration in sample [1]: 1570 µg/mL | concentration in sample [2]: 1240 µg/mL | concentration in sample [3]: 22090 µg/mL | concentration in sample [4]: 22520 µg/mL | concentration in sample (Run 3, Extract, time 22 min): 3520 µg/mL | concentration in sample (Run 3, Extract, time 27 min): 9290 µg/mL | concentration in sample (Run 3, Extract, time 43 min): 2210 µg/mL | concentration in sample (Run 3, Extract, time 70 min): 1710 µg/mL | concentration in sample (Run 3, Extract, time 74 min): 1380 µg/mL | concentration in sample (Run 3, Extract, time 78 min): 3010 µg/mL | concentration in sample (Run 3, Extract, time 82 min): 1880 µg/mL | concentration in sample (Run 3, Feed, time 0 min): 1710 µg/mL | concentration in sample (Run 3, Raffinate, time 22 min): 50780 µg/mL | concentration in sample (Run 3, Raffinate, time 27 min): 19520 µg/mL | concentration in sample (Run 3, Raffinate, time 31 min): 880 µg/mL | concentration in sample (Run 3, Raffinate, time 37 min): 880 µg/mL | concentration in sample (Run 3, Raffinate, time 43 min): 880 µg/mL | concentration in sample (Run 3, Raffinate, time 70 min): 950 µg/mL | concentration in sample (Run 3, Raffinate, time 74 min): 970 µg/mL | concentration in sample (Run 3, Raffinate, time 78 min): 870 µg/mL | concentration in sample (Run 3, Raffinate, time 82 min): 930 µg/mL

sugar
extraction into DME (Run 2): a significant portion of the sugar was not extracted | concentration in sample [1]: 4740 µg/mL | concentration in sample [2]: 5780 µg/mL | concentration in sample [3]: 0 µg/mL | concentration in sample [4]: 0 µg/mL | concentration in sample (Run 3, Extract, time 22 min): 1460 µg/mL | concentration in sample (Run 3, Extract, time 27 min): 1440 µg/mL | concentration in sample (Run 3, Extract, time 43 min): 6200 µg/mL | concentration in sample (Run 3, Extract, time 70 min): 3940 µg/mL | concentration in sample (Run 3, Extract, time 74 min): 3870 µg/mL | concentration in sample (Run 3, Extract, time 78 min): 4810 µg/mL | concentration in sample (Run 3, Extract, time 82 min): 4950 µg/mL | concentration in sample (Run 3, Feed, time 0 min): 48470 µg/mL | concentration in sample (Run 3, Raffinate, time 22 min): 1390 µg/mL | concentration in sample (Run 3, Raffinate, time 27 min): 950 µg/mL | concentration in sample (Run 3, Raffinate, time 31 min): 47660 µg/mL | concentration in sample (Run 3, Raffinate, time 37 min): 41230 µg/mL | concentration in sample (Run 3, Raffinate, time 43 min): 48870 µg/mL | concentration in sample (Run 3, Raffinate, time 70 min): 42100 µg/mL | concentration in sample (Run 3, Raffinate, time 74 min): 44360 µg/mL | concentration in sample (Run 3, Raffinate, time 78 min): 48180 µg/mL | concentration in sample (Run 3, Raffinate, time 82 min): 43140 µg/mL
